Assay results as given in patent US9662461B2, “Dry powder drug delivery system and methods” (MannKind Corporation, priority 2008, dated 2017).

How the values were obtained:
[1] = VMGD and container emptying by laser diffraction, DPI 2 vs predicate inhaler (Example 6); format: physicochemical; conditions: 56% trans, SSA 55, 4 kPa
From the text: Laser diffraction of dry powder formulations emitted from dry powder inhalers is a common methodology employed to characterize the level of de-agglomeration subjected to a powder. The methodology indicates a measure of geometric size rather than aerodynamic size as occurring in industry standard impaction methodologies. Typically, the geometric size of the emitted powder includes a volumetric distribution characterized by the median particle size, VMGD. Importantly, geometric sizes of the emitted particles are discerned with heightened resolution as compared to the aerodynamic sizes provided by impaction methods. Smaller sizes are preferred and result in greater likelihood of individual particles being delivered to the pulmonary tract. Thus, differences in inhaler de-agglomeration and ultimate performance can be easier to resolve with diffraction. In these experiments, an inhaler as specified in Example 3 and a predicate inhaler are tested with laser diffraction at pressures analogous to actual patient inspiratory capacities to determine the effectiveness of the inhalation system to de-agglomerate powder formulations. […] Reported in Table 5 are a VMGD and an efficiency of the container emptying during the testing.

[2] = In vitro powder performance DPI 2 vs MEDTONE delivery system (Example 7); format: physicochemical; conditions: 4 kPa
From the text: In vitro powder performance for these systems was compared for various parameter of inhaler performance. For DPI 2 a single discharge per cartridge was used as compared to two discharges per cartridge in the MEDTONE® system.
Particle sizing by laser diffraction and quantification of emitted mass as described above were used in these experiments. A laser diffraction instrument (Sympatec HELOS) was adapted with a novel pressurized inhaler chamber to facilitate analysis of powder plumes. MTDS cartridges were discharged twice per determination versus once with DPI 2.

[3] = Pharmacokinetics of FDKP inhaled as FDKP inhalation powder (Example 8); format: in vivo, healthy volunteers; conditions: for AVG mean AUC fdkp per emitted fdkp mass: n=10
Description: The MEDTONE® inhaler system was used for comparison.
To generate a “hard” inhalation, the subject provided a nominal inhalation time of about 6.5 seconds and a peak pressure of 7 kPa. Conversely, to generate an “easy” inhalation, the subject provided a nominal inhalation time of about 6.5 seconds and a peak pressure of 5 kPa. Coupled with the inhalation monitoring apparatus, gravimetric assessment of the powder mass discharged from the cartridge was performed. This enabled a linkage between inhalation maneuver during dosing, cartridge discharge mass and pharmacokinetic profile determinations for each subject.
The study was an open-label, crossover, 2-part study in healthy volunteers.
Part 2 was carried out as a 2-part, 2-way crossover study for evaluating the effect of flow rate (15 versus 30 LPM) and inhalation time (3 versus 6 seconds). For each parameter tested (i.e., flow rate, and inhalation time), ten subjects were crossed over for each parameter with 20 subjects total for all of the parameters. Pharmacokinetics of FDPK was assessed with each treatment from blood samples taken from the subjects.

[4] = DPI 2, 10 mg fill, single discharge, n=15
[5] = MEDTONE (MTDS), 10 mg fill FDKP, two discharges, n=30

Compound: O=C(O)/C=C/C(=O)NCCCCC1NC(=O)C(CCCCNC(=O)/C=C/C(=O)O)NC1=O (stereo not shown) [FDKP, 3,6-bis(N-fumaryl-4-aminobutyl)-2,5-diketopiperazine]
- VMGD [1]: 6.800 micron
- Ave. Geometric SD [2, 4]: 3.79 μm
- Ave. VMGD [2, 4]: 6.84 μm
- Ave. Geometric SD [2, 5]: 2.94 μm
- Ave. VMGD [2, 5]: 21.21 μm
- delivery of FDKP into the systemic circulation, DPI 1 better than MEDTONE ([3]; DPI 1 vs MEDTONE inhaler): about 30%
- increase in FDKP plasma AUC, DPI 1 over MEDTONE ([3]; FDKP 10 mg): ~2 fold
- AVG mean AUC fdkp per emitted fdkp mass ([3]; Part 1, DPI 1, cartridge 10 mg fdkp): 3495 ng * min/mL * mg fdkp
- AVG mean AUC fdkp per emitted fdkp mass ([3]; Part 1, MT (MEDTONE), two inhalations, cartridge 10 mg fdkp): 1934 ng * min/mL * mg fdkp
- AVG mean AUC fdkp per emitted fdkp mass ([3]; Part 2, DPI 1, 10 mg, long inhalation time): 3289 ng * min/mL * mg fdkp
- AVG mean AUC fdkp per emitted fdkp mass ([3]; Part 2, DPI 1, 10 mg, short inhalation time): 3310 ng * min/mL * mg fdkp
- AVG mean AUC fdkp per emitted fdkp mass ([3]; Part 3, DPI 1, 10 mg, easy inhalation effort): 3925 ng * min/mL * mg fdkp
- AVG mean AUC fdkp per emitted fdkp mass ([3]; Part 3, DPI 1, 10 mg, hard inhalation effort): 3867 ng * min/mL * mg fdkp
